From ChEMBL document CHEMBL1201862, “PubChem BioAssay data set” (2004)
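These data come from cells grown in 96-well plates and exposed to compound for 48 hours at five concentrations. Here, GI50 denotes the concentration required for 50% inhibition of growth.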 The source made the active and inactive calls. Cut-off read from the data, not from the text of the source: active = GI50 up to about 1.1 µM and inactive = higher.

Experiments:
Assay in all cases: NCI-60 cell line screen, 48 h
CAKI-1 = tested on: CAKI-1
CCRF-CEM = tested on: CCRF-CEM
EKVX = tested on: EKVX
HCT-15 = tested on: HCT-15
HL-60 = tested on: HL-60
Hs-578T = tested on: Hs-578T
IGROV-1 = tested on: IGROV-1
MCF7 = tested on: MCF7
NCI-H23 = tested on: NCI-H23
OVCAR-5 = tested on: OVCAR-5
SK-OV-3 = tested on: SK-OV-3
SN12C = tested on: SN12C
SNB-19 = tested on: SNB-19
SW-620 = tested on: SW-620
TK-10 = tested on: TK-10
UACC-257 = tested on: UACC-257
UACC-62 = tested on: UACC-62
UO-31 = tested on: UO-31
HCC 2998 = tested on: HCC 2998
HOP-62 = tested on: HOP-62

Compound	GI50 (CAKI-1)	GI50 (CCRF-CEM)	GI50 (EKVX)	GI50 (HCT-15) [µM]	GI50 (HL-60)	GI50 (Hs-578T)	GI50 (IGROV-1)	GI50 (MCF7)	GI50 (NCI-H23)	GI50 (OVCAR-5)	GI50 (SK-OV-3)	GI50 (SN12C)	GI50 (SNB-19)	GI50 (SW-620)	GI50 (TK-10)	GI50 (UACC-257)	GI50 (UACC-62)	GI50 (UO-31)	GI50 (HCC 2998)	GI50 (HOP-62)
CCN1c2ccccc2-n2c(C)nnc2-c2c(-c3ccccc3)n[nH]c21	> 10 µM (inactive)	17.5 µM (inactive)	49.7 µM (inactive)	11.1	12.4 µM (inactive)	46.1 µM (inactive)	21.4 µM (inactive)	> 10 µM (inactive)	35.5 µM (inactive)	> 100 µM (inactive)	57.9 µM (inactive)	24.4 µM (inactive)	42.9 µM (inactive)	36.2 µM (inactive)	41.4 µM (inactive)	> 100 µM (inactive)	22.4 µM (inactive)	44.8 µM (inactive)	–	–
Cc1cc(NC(=S)Nc2ccccc2)c(NC(=S)Nc2ccccc2)cc1C	9.91 µM (inactive)	13.5 µM (inactive)	39.3 µM (inactive)	13.8	1.9 µM (inactive)	–	22.8 µM (inactive)	26.6 µM (inactive)	37.2 µM (inactive)	> 65 µM (inactive)	35 µM (inactive)	40.4 µM (inactive)	47.9 µM (inactive)	11.6 µM (inactive)	–	44 µM (inactive)	18.2 µM (inactive)	21.6 µM (inactive)	20.6 µM (inactive)	15.5 µM (inactive)
CC(=O)OC1COC(N2c3ccccc3[C@@H]3CCc4c([nH]c5ccccc45)[C@@H]32)C(OC(C)=O)C1OC(C)=O.CC(=O)OC1COC(N2c3ccccc3[C@H]3CCc4c([nH]c5ccccc45)[C@H]32)C(OC(C)=O)C1OC(C)=O (some centres undefined)	27.7 µM (inactive)	26.5 µM (inactive)	19 µM (inactive)	47	–	21.4 µM (inactive)	2.76 µM (inactive)	–	57.8 µM (inactive)	> 100 µM (inactive)	44.9 µM (inactive)	59.3 µM (inactive)	> 100 µM (inactive)	> 100 µM (inactive)	> 100 µM (inactive)	72.1 µM (inactive)	60.5 µM (inactive)	9.79 µM (inactive)	40.1 µM (inactive)	> 100 µM (inactive)
CC1=Nc2c(N)nc(N)nc2N(C)C1	> 100 µM (inactive)	> 100 µM (inactive)	> 100 µM (inactive)	> 100	> 100 µM (inactive)	> 100 µM (inactive)	> 100 µM (inactive)	> 100 µM (inactive)	> 100 µM (inactive)	> 100 µM (inactive)	> 100 µM (inactive)	> 100 µM (inactive)	> 100 µM (inactive)	> 100 µM (inactive)	> 100 µM (inactive)	> 100 µM (inactive)	> 100 µM (inactive)	74.3 µM (inactive)	–	> 100 µM (inactive)
CC(Sc1ccccc1)C(CO)(CO)[N+](=O)[O-] (centres undefined)	17.9 µM (inactive)	1.85 µM (inactive)	18.2 µM (inactive)	11.5	3.58 µM (inactive)	–	15.6 µM (inactive)	–	16.8 µM (inactive)	22.3 µM (inactive)	22.2 µM (inactive)	16.8 µM (inactive)	21.4 µM (inactive)	14.4 µM (inactive)	18.9 µM (inactive)	14 µM (inactive)	15.8 µM (inactive)	10.6 µM (inactive)	17.2 µM (inactive)	18.2 µM (inactive)
CCC1C(C#N)=C(O)NC(O)=C1C#N	> 100 µM (inactive)	–	> 100 µM (inactive)	> 100	–	–	> 100 µM (inactive)	–	> 100 µM (inactive)	> 100 µM (inactive)	> 100 µM (inactive)	> 100 µM (inactive)	> 100 µM (inactive)	> 100 µM (inactive)	> 100 µM (inactive)	> 100 µM (inactive)	> 100 µM (inactive)	> 100 µM (inactive)	> 100 µM (inactive)	> 100 µM (inactive)
CCP(=O)(CC)C(Cl)(Cl)C(O)C(Cl)(Cl)Cl (centres undefined)	> 100 µM (inactive)	> 100 µM (inactive)	–	> 100	> 100 µM (inactive)	> 100 µM (inactive)	> 100 µM (inactive)	> 100 µM (inactive)	> 100 µM (inactive)	> 100 µM (inactive)	> 100 µM (inactive)	> 100 µM (inactive)	> 100 µM (inactive)	> 100 µM (inactive)	> 100 µM (inactive)	> 100 µM (inactive)	–	> 100 µM (inactive)	> 100 µM (inactive)	> 100 µM (inactive)
O=C(CCN1CCOCC1)/C(=C/c1ccccc1)c1ccccc1	5.14 µM (inactive)	1.98 µM (inactive)	8.18 µM (inactive)	2.19	1.79 µM (inactive)	–	9.93 µM (inactive)	4.28 µM (inactive)	4.15 µM (inactive)	16.6 µM (inactive)	19.3 µM (inactive)	4.15 µM (inactive)	11 µM (inactive)	2.47 µM (inactive)	–	2.74 µM (inactive)	2.49 µM (inactive)	14 µM (inactive)	15 µM (inactive)	26.1 µM (inactive)
C=C1C(=O)OC2C[C@@]3(C)CCCC(=C)C3CC12 (some centres undefined)	6.62 µM (inactive)	> 100 µM (inactive)	17.1 µM (inactive)	10.9	–	–	19 µM (inactive)	–	13.7 µM (inactive)	19.5 µM (inactive)	19.5 µM (inactive)	4.44 µM (inactive)	11.2 µM (inactive)	3.92 µM (inactive)	11.4 µM (inactive)	10.3 µM (inactive)	5.56 µM (inactive)	4.98 µM (inactive)	13.6 µM (inactive)	20.5 µM (inactive)
CCOC(=O)Cc1cc(OC)c(OC)cc1/C(Cl)=C(\C=O)c1ccc(OC)c(OC)c1	29.4 µM (inactive)	> 10 µM (inactive)	22.1 µM (inactive)	17.5	17.3 µM (inactive)	–	28.6 µM (inactive)	–	19.6 µM (inactive)	–	37.1 µM (inactive)	15.2 µM (inactive)	34.4 µM (inactive)	22.9 µM (inactive)	26 µM (inactive)	18.9 µM (inactive)	16.4 µM (inactive)	26.1 µM (inactive)	–	9.35 µM (inactive)
CC(=O)c1c(-c2ccco2)c(C#N)c(=S)n(C2OC(CO)C(O)C(O)C2O)c1-c1ccccc1 (centres undefined)	> 100 µM (inactive)	43.3 µM (inactive)	43.1 µM (inactive)	73.3	41.2 µM (inactive)	61.8 µM (inactive)	> 100 µM (inactive)	90.2 µM (inactive)	31.8 µM (inactive)	> 100 µM (inactive)	> 100 µM (inactive)	54.5 µM (inactive)	22.4 µM (inactive)	76 µM (inactive)	> 100 µM (inactive)	> 100 µM (inactive)	32 µM (inactive)	51.2 µM (inactive)	–	47.6 µM (inactive)
COc1ccc(-c2cc(O)c3c(C)ccnc3n2)cc1	33.8 µM (inactive)	17.8 µM (inactive)	30.7 µM (inactive)	5.61	–	23.8 µM (inactive)	5.64 µM (inactive)	2.03 µM (inactive)	19 µM (inactive)	20.5 µM (inactive)	23 µM (inactive)	27.7 µM (inactive)	36.8 µM (inactive)	4.81 µM (inactive)	41.1 µM (inactive)	33.7 µM (inactive)	10.6 µM (inactive)	27.8 µM (inactive)	22.5 µM (inactive)	20.7 µM (inactive)
